Data reported in US10226462B2, “Detection and treatment of excessive hair shedding” (Samson Clinical Pty Ltd, priority 2014, dated 2019).

Assays:
telogen effluvium = conditions: treatments commonly used for AGA; cited from earlier work
[1] = system: androgenetic alopecia (male pattern hair loss); assay: Pilot open study of oral minoxidil 0.25 mg once daily for 24 weeks in men with AGA; assay type: in vivo, human; conditions: 0.25 mg daily
Description: This study was a pilot, prospective, open, observational study conducted at the Sinclair Dermatology Clinic in Melbourne, Australia. Participants were dosed for 24 weeks. Treatment naïve men with Hamilton Norwood staged III vertex, IV or V were treated for 24 weeks with minoxidil 0.25 mg once daily. The primary efficacy endpoint was investigators' photographic assessment at week 24 and adverse events. Investigator photographic assessment was conducted by a single investigator grading the photographs using a 3 point rating scale, ranging from “decreased hair growth” to “increased hair growth,” centred at no change. Any reports of adverse events were collected at every visit.

[2] = system: bitemporal hair loss in female pattern hair loss; assay: Oral minoxidil 0.25 mg daily in women with bitemporal recession in female pattern hair loss; assay type: in vivo, human; conditions: for Hair shedding (HSS stage): baseline stage 6
[3] = system: chronic telogen effluvium; assay: Once daily oral minoxidil in women with chronic telogen effluvium (CTE), hair shedding score and safety; conditions: for Mean HSS: 36 women, oral 0.5-2.5 mg daily, baseline 5.63; for Reduction in mean HSS: p<0.001
Description: The goals of this study were to review the use of oral minoxidil in CTE with respect to the response to hair shedding and safety. Hair shedding was assessed by patient self-reported Hair shedding Scores (HSS) using the visual analogue scale as described in Example 1 and FIG. 1. Hair Shedding Scores (HSS) were on the scale of 1 to 6 (6 being the highest level of hair shedding). Patients included in this study were women with a diagnosis of CTE based on >6 month history of increased telogen hair shedding, a HSS of 4-6, no visible mid frontal scalp hair loss (Sinclair stage 1) and no hair follicle miniaturization on scalp biopsy.
Data pertaining to dosage of oral minoxidil, previous treatments including topical minoxidil use, blood pressure, side effects, hypertrichosis and trichodynia were collected for each patient. Patient-reported responses were based on a visual analogue scale HSS at each consultation. The HSS prior to starting oral minoxidil, and scores at 6 and 12 months were extracted for analysis. Patients were treated with a once daily oral minoxidil (0.5 to 2.5 mg).
Data were analysed using Matlab R2014b statistical software. Hair shedding scores at baseline, 6 and 12 months were analysed using the Wilcoxon rank sum test for pair-wise comparisons. Differences in blood pressure at baseline and 6 months were also analysed using Wilcoxon rank sum test. Relationship between outcomes (HSS at six and 12 months) and individual patient specific variables including previous use of […], duration of disease, dosage and HSS at baseline were analysed using a generalised linear regression model.

Monilethrix = assay: Oral minoxidil in two cases of monilethrix
Description: Patient 6: A person presented with lifelong fragile, sparse, and thin hair. […] Comorbidities included Crohn's disease and impaired hearing. Their child and two sons had also been diagnosed with monilethrix and suffered from sparse and fragile hair. […] As the application of topical minoxidil could potentially accentuate breakage of fragile hairs, treatment was commenced with oral minoxidil 0.25 mg daily.
Patient 7: A person with fragile, thin and sparse hair since childhood secondary to monilethrix presented for assessment and treatment. […] As the application of topical minoxidil could potentially accentuate breakage of fragile hairs oral Minoxidil 0.25 mg daily was commenced.

CC(=O)O[C@]1(C(C)=O)CC[C@H]2[C@@H]3C=C(Cl)C4=CC(=O)[C@@H]5C[C@@H]5[C@]4(C)[C@H]3CC[C@@]21C [cyproterone acetate]
Efficacy in TE (telogen effluvium): do not work

CC(C)(C)NC(=O)[C@H]1CC[C@H]2[C@@H]3CC[C@H]4NC(=O)C=C[C@]4(C)[C@H]3CC[C@]12C [finasteride]
Efficacy in TE (telogen effluvium): do not work

Nc1cc(N2CCCCC2)nc(N)[n+]1[O-] [minoxidil]
Tolerability ([1]; patients with MPHL): well tolerated | Adverse events ([1]; six men, 24 weeks): No adverse events | Side-effects ([2]; Patient 8): no side-effects | Hair shedding (HSS stage) ([2]; Patient 8, 0.25 mg, review at 3 months): 5 | Blood pressure ([2]; Patient 8, review at 3 months, baseline 110/70): 115/65 | Facial hypertrichosis ([2]; Patient 8, review at 3 months, present at baseline): unaltered | Side effects or complications of treatment ([2]; Patient 9): not experienced any side effects or complications | Hair shedding (HSS stage) ([2]; Patient 9, 0.25 mg once daily with continued spironolactone 100 mg daily, review at 6 weeks): 4 | Blood pressure ([2]; Patient 9, review at 6 weeks, baseline 140/85): 125/85 | Patients in whom the HSS improved ([3]; after 6 months, of 36): 31 | Patients in whom the HSS remained the same ([3]; after 6 months, of 36): 4 | Mean HSS ([3]; at 6 months): 3.9 | Mean HSS ([3]; at 12 months): 3.05 | Patients in whom the HSS increased ([3]; at the 6-month mark, of 36): 1 | Patients improved from baseline ([3]; at the 12 month mark, of 36): 33 | Reduction in mean HSS ([3]; baseline to 6 months): 1.7 | Reduction in mean HSS ([3]; baseline to 12 months): 2.58 | Mean reduction in HSS ([3]; between 6 months and 12 months, p=0.003): 0.89 | Lowest blood pressure recorded ([3]; in vivo): 90/70 | Mean change in blood pressure, diastolic ([3]; in vivo): plus 2.1 mmHg | Mean change in blood pressure, systolic ([3]; in vivo): minus 0.5 mmHg | Mean dose in patient group with hypertrichosis (Yes) ([3]; in vivo): 1.46 mg | Mean dose in patient group with trichodynia (Yes) ([3]; in vivo): 1.19 mg | Mean dose in patient group without hypertrichosis (No) ([3]; in vivo): 0.99 mg | Mean dose in patient group without trichodynia (No) ([3]; in vivo): 1.11 mg | Patients who developed ankle oedema ([3]; of 36): One | Patients who developed any blood test abnormalities ([3]; of 36): No patients | Women who developed facial hypertrichosis ([3]; of 36): Thirteen | Patients who developed transient postural dizziness ([3]; of 36, resolved with continued treatment): Two | Difference between blood pressure at baseline and 6 months ([3]; p>0.05): no significant differences | Mean reduction in HSS ([3]; patients who had not used topical minoxidil, at 12 months): 2.32 | Mean reduction in HSS ([3]; patients who had not used topical minoxidil, at six months): 1.56 | Mean reduction in HSS ([3]; patients who had previously used topical minoxidil, at 12 months): 3.18 | Mean reduction in HSS ([3]; patients who had previously used topical minoxidil, at six months): 2 | Side effects (Monilethrix; Patient 6, oral 0.25 mg daily): did not experience any side effects or complication | Tolerability (Monilethrix; low doses, oral): well tolerated

CC(=O)S[C@@H]1CC2=CC(=O)CC[C@]2(C)[C@H]2CC[C@@]3(C)[C@@H](CC[C@@]34CCC(=O)O4)[C@H]12 [spironolactone]
Efficacy in TE (telogen effluvium): do not work
